According to patent US20100056620A1, “ACTIVE COMPOUND COMBINATIONS WITH INSECTICIDAL AND ACARICIDAL PROPERTIES” (Bayer CropScience AG, priority 2006, published 2010):

How the values were obtained:
Type in all cases: in vivo
[1] = system: predatory mite Amblyseius andersoni (AMBLAN); assay: Example A: apple tree field test, count of predatory mites on 25 leaves; conditions: apple 'Braeburn', etoxazole 0.05%, I-1-b 0.04%
Description: (§1) In 4 replications, in each case five about 10-year-old apple trees (crown height about 2.5 m) of the cultivar “Braeburn” are treated against the red spider Panonychus ulmi (PANOUL). Here, the active compound (I-b-1) (240SC) and the commercial standard etoxazole (110 SC) are applied at the stated application rates in the presence of the predatory mite Amblyseius andersoni (AMBLAN) using a pressure-operated knapsack spray. The water application rate is 400 l/ha. Two applications are carried out at an interval of 42 days.
(§2) Evaluation is carried out 4 days prior to and 6, 29, 43 and 63 days after the 1st treatment by counting the number of adult spider mites and predatory mites on 25 leaves and establishing a prey/predator ratio as a measure for the supporting action of the beneficial species.

[2] = system: fruit tree spider mite (Panonychus ulmi); assay: Example B: Panonychus ulmi test on plum cuttings, with or without added predatory mites; conditions: 20 ppm, active compound alone, spray
Source text: The expected activity for a given combination of two active compounds can be calculated (cf. Colby, S. R.; “Calculating Synergistic and Antagonistic Responses of Herbicide Combinations”, Weeds 15, pages 20-22, 1967) as follows:
If • X is the kill rate, expressed in % of the untreated control, when employing active compound A at an application rate of in ppm or g/ha, • Y is the kill rate, expressed in % of the untreated control, when employing active compound B at an application rate of n ppm or g/ha, • E is the kill rate, expressed in % of the untreated control, when employing active compounds A and B at application rates of m and n ppm or g/ha, • then
If the actual insecticidal kill rate is higher than the calculated one, the kill rates of the combination are superadditive, i.e. a synergistic effect is present. In this case, the kill rate that is actually observed has to be higher than the value, calculated using the formula above, for the expected kill rate (E).
To produce a suitable preparation of active compound, 1 part by weight of active compound is mixed with the stated amounts of solvent and emulsifier, and the concentrate is diluted with emulsifier-containing water to the desired concentration. […]
After the desired period of time, the kill of the pest in % is determined. […] The determined kill ratios are entered into Colby's formula.

[3] = system: red spider Panonychus ulmi (PANOUL); assay: Example A: apple tree field test against red spider, count of adult spider mites on 25 leaves; conditions: etoxazole 0.05%, I-1-b 0.04%; for PANOUL (number of adult spider mites on 25 leaves): apple 'Braeburn'; for Prey/Predator ratio: PANOUL/AMBLAN
Description: as §1, §2

[4] = 43 d after 1st treatment, two applications 42 days apart
[5] = 63 d after 1st treatment, two applications 42 days apart
[6] = −4 d (4 days prior to 1st treatment)
[7] = 6 d after 1st treatment, AMBLAN present
[8] = 29 d after 1st treatment, AMBLAN present
[9] = −4 d (4 days prior to 1st treatment), AMBLAN present

Row | SMILES | AMBLAN (number of predatory mites on 25 leaves) ([1]; 6 d after 1st treatment) | AMBLAN (number of predatory mites on 25 leaves) ([1]; 29 d after 1st treatment) | AMBLAN (number of predatory mites on 25 leaves) [1, 4] | AMBLAN (number of predatory mites on 25 leaves) [1, 5] | AMBLAN (number of predatory mites on 25 leaves) [1, 6] | Kill in % after 7 d [2] | PANOUL (number of adult spider mites on 25 leaves) [3, 7] | PANOUL (number of adult spider mites on 25 leaves) [3, 8] | PANOUL (number of adult spider mites on 25 leaves) [3, 4] | PANOUL (number of adult spider mites on 25 leaves) [3, 5] | Prey/Predator ratio ([3]; 6 d after 1st treatment) | Prey/Predator ratio ([3]; 29 d after 1st treatment) | Prey/Predator ratio ([3]; 43 d after 1st treatment) | Prey/Predator ratio ([3]; 63 d after 1st treatment) | Prey/Predator ratio [3, 6] | PANOUL (number of adult spider mites on 25 leaves) [3, 9]
1 | CCC(C)(C)C(=O)OC1=C(c2ccc(Cl)cc2Cl)C(=O)OC12CCCCC2 [I-b-1, spirodiclofen] | 3 | 57 | 100 | 62 | 2 | 70% | 13 | 111 | 52 | 0 | 4.3 | 1.9 | 0.5 | 0.00 | 18 | 36
2 | CCOc1cc(C(C)(C)C)ccc1C1COC(c2c(F)cccc2F)=N1 (stereo not shown) [etoxazole, reference compound] | 5 | 18 | 52 | 86 | 1 | – | 10 | 221 | 203 | 87 | 2.0 | 12.3 | 3.9 | 1.01 | 25 | 25
